{"source": "patent US20090036426A1", "about": "(AMPLA Pharmaceuticals Inc., priority 2007, published 2009)", "key": {"[1]": {"biological_target": "T1, CB1 receptor (Homo sapiens, UniProt P21554)", "T1 sequence (P21554 whole entry)": "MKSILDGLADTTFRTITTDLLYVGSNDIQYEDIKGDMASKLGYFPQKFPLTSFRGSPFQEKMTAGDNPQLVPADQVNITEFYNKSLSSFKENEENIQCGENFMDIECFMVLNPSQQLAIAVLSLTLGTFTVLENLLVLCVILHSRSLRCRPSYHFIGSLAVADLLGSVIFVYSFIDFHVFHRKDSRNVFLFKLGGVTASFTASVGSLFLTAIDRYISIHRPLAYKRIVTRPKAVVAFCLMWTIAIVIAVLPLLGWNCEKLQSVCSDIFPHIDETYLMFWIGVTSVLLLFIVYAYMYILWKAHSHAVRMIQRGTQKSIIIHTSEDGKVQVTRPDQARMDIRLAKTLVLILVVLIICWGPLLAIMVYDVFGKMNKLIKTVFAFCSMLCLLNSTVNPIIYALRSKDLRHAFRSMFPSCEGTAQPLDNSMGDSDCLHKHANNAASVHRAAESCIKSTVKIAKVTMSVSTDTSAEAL", "test": "Functional activity versus the CB1 receptor (statement, no method)"}, "[2]": {"biological_target": "T1, CB1 receptor", "test": "Competition ligand binding assay, CHO-k1 cell membranes", "design": "expressed in transfected cells; host or cells: CHO-k1 cell membranes", "settings": "0.75 nM radioligand, FIG. 6", "description": "(§1) Competition ligand binding assays were performed with the non-selective cannabinoid receptor agonist ([^3H]CP 55,940) (0.75 nM) in the binding buffer containing 50 mM Tris-HCl, pH 7.4, 3 mM MgCl2, 1 mM EDTA, 0.2% BSA using CHO-k1 cell membranes stably expressing human CB1 receptors or mouse brain membrane preparations in 96-well plate format. The receptor membranes (10 μg/well) were pre-incubated with different concentrations of tested compounds in the binding buffer at room temperature for 30 min prior to addition of 0.75 nM [^3H]CP 55,940 in a final volume of 100 μl. The binding was carried out at room temperature for another 2 h. To determine the non-specific binding, experiments were also performed in the presence of 10 μM unlabeled CP 55,940. Binding was terminated by addition of cold binding buffer and filtrated on Whatman GF/B glass-fiber filters using a sampling manifold. The filters were washed 6 times with cold binding buffer and air-dried overnight. The radioactivity was quantitated on a TopCounter (PerkinElmer) after adding scintillation fluid. Specific binding was defined as the difference between the binding in the presence and absence of 10 μM unlabeled CP 55, 940."}, "[3]": {"biological_target": "T2, mouse CB1 (mouse brain membrane) (Mus musculus, UniProt P47746)", "T2 construct": "or mouse brain membrane preparations in 96-well plate format; from tissue; host or cells: mouse brain membranes", "T2 sequence (P47746 whole entry)": "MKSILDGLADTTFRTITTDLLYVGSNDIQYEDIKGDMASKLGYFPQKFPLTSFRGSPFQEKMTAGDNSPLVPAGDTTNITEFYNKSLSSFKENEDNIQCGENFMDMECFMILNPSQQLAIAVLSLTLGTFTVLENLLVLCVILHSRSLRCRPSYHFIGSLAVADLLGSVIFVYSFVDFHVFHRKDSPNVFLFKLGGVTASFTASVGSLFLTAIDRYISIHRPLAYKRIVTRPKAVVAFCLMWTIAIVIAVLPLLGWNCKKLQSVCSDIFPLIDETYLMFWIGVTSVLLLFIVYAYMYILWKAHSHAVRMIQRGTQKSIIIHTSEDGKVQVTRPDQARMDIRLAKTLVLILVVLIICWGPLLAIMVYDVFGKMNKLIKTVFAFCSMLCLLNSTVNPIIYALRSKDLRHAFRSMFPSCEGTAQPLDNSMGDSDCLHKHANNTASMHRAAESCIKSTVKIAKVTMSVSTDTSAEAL", "test": "Competition ligand binding assay, mouse brain membrane preparations", "description": "as §1"}, "[4]": {"biological_target": "T1, CB1 receptor", "test": "Dissociation kinetics assay with [3H]CP 55,940 on CHO-k1 cell membranes", "assay_type": "binding", "design": "expressed in transfected cells; host or cells: CHO-k1 cell membranes", "settings": "0.75 nM [3H]CP 55,940, room temperature, FIG. 3", "description": "Dissociation kinetics assays were performed with the non-selective cannabinoid receptor agonist ([^3H]CP 55,940) (0.75 nM) in the binding buffer containing 50 mM Tris-HCl, pH 7.4, 3 mM MgCl2, 1 mM EDTA, 0.2% BSA using CHO-k1 cell membranes stably expressing human CB1 receptors in 96-well plate format. The CB1 receptor membranes (10 μg/well) were incubated with 0.75 nM [^3H]CP 55,940 in 100 μl binding buffer at room temperature for 2 h. Dissociation was initiated with addition of 100 μl unlabeled CP 55,940 (10 μM) in binding buffer in the absence or presence of different concentrations of compounds (compound 7). Dissociation was carried out at room temperature for indicated time. To determine the non-specific binding, experiments were also performed in the presence of 10 μM unlabeled CP 55,940. Binding was terminated by addition of cold binding buffer and filtrated on Whatman GF/B glass-fiber filters using a sampling manifold. The filters were washed 6 times with cold binding buffer and air-dried overnight. The radioactivity was quantitated on a TopCounter (PerkinElmer) after adding scintillation fluid. Specific binding was defined as the difference between the binding in the presence and absence of 10 μM unlabeled CP 55,940."}, "[5]": {"biological_target": "T3, CB2 receptor (Homo sapiens, UniProt P34972)", "T3 construct": "host or cells: CB2 receptor bearing cells (host line not described)", "T3 sequence (P34972 whole entry)": "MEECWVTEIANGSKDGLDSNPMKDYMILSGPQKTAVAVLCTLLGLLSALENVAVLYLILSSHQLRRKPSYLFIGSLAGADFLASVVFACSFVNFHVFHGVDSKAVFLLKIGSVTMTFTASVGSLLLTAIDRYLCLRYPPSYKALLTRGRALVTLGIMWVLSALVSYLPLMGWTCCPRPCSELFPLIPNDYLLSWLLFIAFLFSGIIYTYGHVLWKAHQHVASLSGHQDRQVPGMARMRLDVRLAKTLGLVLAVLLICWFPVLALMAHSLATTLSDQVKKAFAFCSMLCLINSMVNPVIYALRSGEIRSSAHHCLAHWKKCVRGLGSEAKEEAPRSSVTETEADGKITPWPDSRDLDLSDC", "test": "Ca2+i response to 2-AG dose-response in CB2 receptor bearing cells with or without compound", "assay_type": "cell-based", "settings": "2-AG with or without compound, FIG. 2"}, "[6]": {"biological_target": "T4, Human Cannabinoid 1 (CB1) receptor (Homo sapiens, UniProt P21554)", "T4 construct": "expressed in transfected cells; host or cells: CHO cells stably expressing the GqΔGi chimera; clonal CB1 line", "T4 sequence (P21554 whole entry)": "as the sequence (P21554 whole entry) above", "test": "Ca2+i response to 2-AG dose-response in CB1 cells with or without compound (DSIS flow cytometry)", "assay_type": "cell-based", "settings": "2-AG with or without compound, FIG. 2", "excerpt": "cDNA for the G protein GqΔGi chimera was generated by PCR and inserted into the polylinker region of the pcDNA3/hygro+ vector (Invitrogen). Stable expression of GqΔGi chimera protein in CHO cell line was generated under hygromycin selection. Human Cannabinoid 1 (CB1) cDNA was inserted into the polylinker region of the pcDNA3.1/(+) vector (Invitrogen) and DNA was introduced into the GqΔGi/CHO cell line by Lipofectamine reagent (Invitrogen). Cell lines stably expressing the CB receptor with GqΔGi chimera protein were generated by double selection with hygromycin and G418 (Coward, P., et al. 1999. Chimeric G proteins allow a high-throughput signaling assay of Gi-coupled receptors. Anal Biochem. 270:242-8).\nCB1 Cells were plated 24-48 hours in advance, and were harvested with trypsin at ˜80% confluency. Cells were then centrifuged and resuspended two times in Hybridoma Media, the final time at a concentration of 1×10^6 cells/mL. Two μM of Indo-1 were added and cells were incubated for 1 hour on a rotator at room temperature. […]\nThe probe-loaded CB1 and Control cell mixture was placed in the Cell Suspension System on the DSIS where they were continuously rocked to keep them in a suspended state. […] The DSIS software, NVS Sampler, recorded a timing file and the CyAn software, Summit, recorded a data file. […]"}, "[7]": {"biological_target": "T1, CB1 receptor", "test": "[35S]GTPγS binding assay on CHO-k1 cell membranes", "assay_type": "biochemical", "design": "expressed in transfected cells; host or cells: CHO-k1 cell membranes", "description": "[^35S]GTPγS binding assays were performed with CHO-k1 cell membranes stably expressing human CB1 receptors in 96-well ScintiPlate (PerkinElmer). The membranes (12.5 μg/well) were preincubated with compound 7 in the binding buffer (50 mM Tris-HCl, pH 7.4, 100 mM NaCl, 3 mM MgCl2, 0.2 mM EDTA, 0.2% BSA and 10 μM GDP) at 30° C. for 30 min, then added various concentrations of agonists (WIN 55212-2 or CP 55,940) and [^35S]GTPγS (0.2 nM) in a final volume of 200 μl. Reactions were carried out at 30° C. for 60 min, followed by centrifugation of plate at […] for 15 min. After removing supernatant, the radioactivity was quantitated on a TopCounter."}, "[8]": {"test": "Acute administration: wet mash and food intake and 24 h body weight in lean mice (Example 3)", "assay_type": "in vivo, male C57BL/6J mice", "settings": "dosed orally at 10 mg/kg, one-way ANOVA"}, "[9]": {"test": "Body weight of diet-induced obese mice, repeated oral administration (Example 2)", "assay_type": "in vivo, male C57BL/6J mice", "settings": "for reduction of body weight: dosed for 28 days, DIO mice, FIG. 8", "description": "Sixty-five C57BL/6J mice (7-8 weeks of age) were ordered from Charles River, Margate, Kent. Mice were group housed in polypropylene cages with free access to a high fat diet (D12451 45% of Kcal derived from fat; Research Diets, New Jersey, USA) and tap water at all times. Animals were maintained at 21±4° C. and 55±20% humidity on a normal phase 12 h light-dark cycle (lights on 04:30 h)\nBody weight and food and water intake were recorded daily. Following drug administration the animals were examined and any overt behaviour was recorded. For all dosing, the morning session was timed such that approximately half the mice were dosed at the time of lights out (09:30).\nThe test compounds were dissolved in 1% methylcellulose. Drugs were made up fresh each day 1-2 h before dosing and were administered using a dose volume in the range of 1-3 ml/kg. Drug doses were expressed as free base.\nP<0.05 was considered to be statistically significant. Daily food and water intake data was analysed by ANOVA."}, "[10]": {"test": "Body weight of diet-induced obese mice, chronic administration of Treatment E (Example 4)"}}}
{"smiles": "NCCC(Oc1ccc(C(F)(F)F)cc1)c1ccccc1", "note": "(racemic) [racemate of norfluoxetine, 3-(4-trifluoromethylphenoxy)-3-phenylpropylamine]", "values": [{"measurement": "functional activity versus the CB1 receptor", "setting": "[1]", "value": "antagonist"}]}
{"smiles": "CNCC[C@@H](Oc1ccc(C(F)(F)F)cc1)c1ccccc1", "note": "[(R)-fluoxetine]", "values": [{"measurement": "functional activity versus the CB1 receptor", "setting": "[1]", "value": "antagonist"}]}
{"smiles": "CNCC[C@H](Oc1ccc(C(F)(F)F)cc1)c1ccccc1", "note": "[(S)-Fluoxetine]", "values": [{"measurement": "functional activity versus the CB1 receptor", "setting": "[1]", "value": "inverse agonist"}]}
{"smiles": "Fc1ccc(C(OCCCc2c[nH]cn2)c2ccc(F)cc2)cc1", "note": "[compound 7]", "values": [{"measurement": "inhibition of binding of [3H]CP 55,940", "setting": "[2]", "value": "partially inhibited"}, {"measurement": "inhibition of agonist (CP 55940) binding", "setting": "[3]; mouse brain membrane, FIG. 7", "value": "inhibited"}, {"measurement": "inhibition of antagonist/inverse agonist (SR 141716) binding", "setting": "[3]; mouse brain membrane, FIG. 7", "value": "inhibited"}, {"measurement": "inhibition of binding of [3H]CP 55,940", "setting": "[3]; mouse brain membranes, 0.75 nM radioligand, FIG. 6", "value": "almost fully inhibited"}, {"measurement": "effect on the dissociation rate of [3H]CP 55,940", "setting": "[4]", "value": "no effect"}, {"measurement": "effect on the 2-AG dose response (Ca2+i)", "setting": "[5]", "value": "No effect"}, {"measurement": "effect on the 2-AG dose response (Ca2+i)", "setting": "[6]", "value": "right shift"}, {"measurement": "pA2 estimation using CP 55940 as an agonist", "setting": "[7]; CB1 cell line, FIG. 4", "value": "did not support an allosteric effect"}, {"measurement": "[35S]GTPγS binding: antagonist versus inverse agonist activity", "setting": "[7]; response dropped below basal levels, FIG. 5", "value": "inverse agonist activity"}]}
{"smiles": "Cc1c(C(=O)NN2CCCCC2)nn(-c2ccc(Cl)cc2Cl)c1-c1ccc(Cl)cc1", "note": "[rimonabant]", "values": [{"measurement": "24 hour body weight change versus vehicle", "setting": "[8]", "value": "No significant differences"}, {"measurement": "body weight versus vehicle", "setting": "[8]", "value": "No significant differences"}, {"measurement": "daily food intake versus vehicle", "setting": "[8]", "value": "No significant differences"}, {"measurement": "reduction of body weight", "setting": "[9]; 10 mg/kg po", "value": 15, "unit": "%"}, {"measurement": "weight reduction as compared to vehicle on day 29 (Dunnett's test)", "setting": "[9]; 10 mg/kg po, p<0.001, DIO mice", "value": "statistically significant weight reduction"}, {"measurement": "reduction in body weight", "setting": "[10]; 10 mg/kg orally, chronic administration, DIO mice, FIG. 22", "value": 15, "unit": "%"}, {"measurement": "weight reduction as compared to vehicle on day 29 (Dunnett's test)", "setting": "[10]; dosed orally at 10 mg/kg, p<0.001", "value": "statistically significant weight reduction"}]}
{"smiles": "CC(C)CC(N(C)C)C1(c2ccc(Cl)cc2)CCC1", "note": "(centres unmarked) [sibutramine]", "values": [{"measurement": "reduction of body weight", "setting": "[9]; 20 mg/kg po", "value": 2, "unit": "%"}]}
